For this assay, the system named is MV-4-11 cells. The experiment in a line: Gene expression microarray analysis (Affymetrix PrimeView) and GSEA. The assay is classed as cell-based, human. The arrangement: RFU PODN (11730768_x_at) / Fold change /veh PODN (11730768_x_at) / RFU LINC00158 (11744669_a_at) / Fold change /veh LINC00158 (11744669_a_at) / RFU DUSP10 (11751237_a_at) / Fold change /veh DUSP10 (11751237_a_at) / RFU ID3 (11757404_x_at) / Fold change /veh ID3 (11757404_x_at) / RFU PLEKHG5 (11737974_s_at) / Fold change /veh PLEKHG5 (11737974_s_at) / RFU LRRC4B (11730491_at) / Fold change /veh LRRC4B (11730491_at) / RFU GIMAP4 (11747438_a_at) / Fold change /veh GIMAP4 (11747438_a_at) / RFU KRT8 (11758183_x_at) / Fold change /veh KRT8 (11758183_x_at) / RFU CNN1 (11734310_a_at) / Fold change /veh CNN1 (11734310_a_at) / RFU VPS37D (11726825_at) / Fold change /veh VPS37D (11726825_at) / RFU C10orf10 (11716522_x_at) / Fold change /veh C10orf10 (11716522_x_at) / RFU KIR2DL2 /// KIR2DL4 /// KIR2DL5A /// KIR2DL5B /// KIR2DS1 /// KIR2DS2 /// KIR2DS3 /// KIR2DS4 /// KIR3DL3 /// KIR3DL3 /// KIR3DS1 (11738374_at) / Fold change /veh KIR2DL2 /// KIR2DL4 /// KIR2DL5A /// KIR2DL5B /// KIR2DS1 /// KIR2DS2 /// KIR2DS3 /// KIR2DS4 /// KIR3DL3 /// KIR3DL3 /// KIR3DS1 (11738374_at) / RFU C1QL1 (11718748_at) / Fold change /veh C1QL1 (11718748_at) / RFU TMPRSS4 (11747572_a_at) / Fold change /veh TMPRSS4 (11747572_a_at) / RFU HAMP (11756126_x_at) / Fold change /veh HAMP (11756126_x_at) / RFU RNFT2 (11725882_a_at) / Fold change /veh RNFT2 (11725882_a_at) / RFU NR4A2 (11747474_a_at) / Fold change /veh NR4A2 (11747474_a_at) / RFU ABCC12 (11746883_a_at) / Fold change /veh ABCC12 (11746883_a_at) / RFU TMEM136 (11760407_x_at) / Fold change /veh TMEM136 (11760407_x_at) / RFU CLDN22 /// WWC2 (11732394_at) / Fold change /veh CLDN22 /// WWC2 (11732394_at) / RFU HLA-DPB1 (11760878_x_at) / Fold change /veh HLA-DPB1 (11760878_x_at) / RFU SPINT1 (11716480_a_at) / Fold change /veh SPINT1 (11716480_a_at) / RFU GAP43 (11754022_s_at) / Fold change /veh GAP43 (11754022_s_at) / RFU A4GNT (11735810_at) / Fold change /veh A4GNT (11735810_at) / RFU PRB3 (11715151_x_at) / Fold change /veh PRB3 (11715151_x_at) / RFU TUBB4B (11761932_at) / Fold change /veh TUBB4B (11761932_at) / RFU CAPN14 (11732068_a_at) / Fold change /veh CAPN14 (11732068_a_at) / RFU TMCC2 (11721928_a_at) / Fold change /veh TMCC2 (11721928_a_at) / RFU IRGQ (11745062_a_at) / Fold change /veh IRGQ (11745062_a_at) / RFU FAM174B (11720279_a_at) / Fold change /veh FAM174B (11720279_a_at) / RFU TMPRSS4 (11748680_a_at) / Fold change /veh TMPRSS4 (11748680_a_at) / RFU FAM212B (11763350_a_at) / Fold change /veh FAM212B (11763350_a_at) / RFU PLEKHG5 (11743358_a_at) / Fold change /veh PLEKHG5 (11743358_a_at) / RFU ZSCAN30 (11745921_a_at) / Fold change /veh ZSCAN30 (11745921_a_at) / RFU CMKLR1 (11741424_a_at) / Fold change /veh CMKLR1 (11741424_a_at) / RFU LOC101060620 /// MAPK8IP1 (11723275_at) / Fold change /veh LOC101060620 /// MAPK8IP1 (11723275_at) / RFU SPTSSB (11747773_x_at) / Fold change /veh SPTSSB (11747773_x_at) / RFU PRSS12 (11739890_at) / Fold change /veh PRSS12 (11739890_at) / RFU BIN1 (11741810_x_at) / Fold change /veh BIN1 (11741810_x_at) / RFU WNT11 (11732464_a_at) / Fold change /veh WNT11 (11732464_a_at) / RFU C10orf10 (11716521_a_at) / Fold change /veh C10orf10 (11716521_a_at) / RFU C5orf56 (11738089_at) / Fold change /veh C5orf56 (11738089_at) / RFU CYB561 (11721691_x_at) / Fold change /veh CYB561 (11721691_x_at) / RFU ANKRD19P (11752326_a_at) / Fold change /veh ANKRD19P (11752326_a_at) / RFU OR2T12 /// OR2T33 /// OR2T8 (11738714_s_at) / Fold change /veh OR2T12 /// OR2T33 /// OR2T8 (11738714_s_at) / RFU VCAN (11748164_a_at) / Fold change /veh VCAN (11748164_a_at) / RFU JSRP1 (11732532_at) / Fold change /veh JSRP1 (11732532_at) / RFU KRTAP10-11 (11738290_x_at) / Fold change /veh KRTAP10-11 (11738290_x_at) / RFU MYO3A (11730013_a_at) / Fold change /veh MYO3A (11730013_a_at) / RFU EBF3 (11725865_a_at) / Fold change /veh EBF3 (11725865_a_at) / RFU CAMK2N1 (11719241_x_at) / Fold change /veh CAMK2N1 (11719241_x_at) / RFU C5orf56 (11738088_a_at) / Fold change /veh C5orf56 (11738088_a_at) / RFU OLFML3 (11715873_a_at) / Fold change /veh OLFML3 (11715873_a_at) / RFU LOC100653217 /// NTM (11731650_a_at) / Fold change /veh LOC100653217 /// NTM (11731650_a_at) / RFU MAPK11 (11762145_a_at) / Fold change /veh MAPK11 (11762145_a_at) / RFU FIZ1 (11724087_x_at) / Fold change /veh FIZ1 (11724087_x_at) / RFU OASL (11726364_x_at) / Fold change /veh OASL (11726364_x_at) / RFU SOX15 (11748057_x_at) / Fold change /veh SOX15 (11748057_x_at) / RFU CD79A (11719716_a_at) / Fold change /veh CD79A (11719716_a_at) / RFU HIST1H1D (11736915_at) / Fold change /veh HIST1H1D (11736915_at) / RFU CASKIN2 (11723855_a_at) / Fold change /veh CASKIN2 (11723855_a_at) / RFU LOC730098 (11760151_x_at) / Fold change /veh LOC730098 (11760151_x_at) / RFU OR4N2 (11742367_at) / Fold change /veh OR4N2 (11742367_at) / RFU PRRT2 (11749266_a_at) / Fold change /veh PRRT2 (11749266_a_at) / RFU SNX32 (11753110_a_at) / Fold change /veh SNX32 (11753110_a_at) / RFU CDHR5 (11726645_a_at) / Fold change /veh CDHR5 (11726645_a_at) / RFU RCAN1 (11760418_a_at) / Fold change /veh RCAN1 (11760418_a_at) / RFU FAM167A (11723789_a_at) / Fold change /veh FAM167A (11723789_a_at) / RFU FAM26E (11764081_at) / Fold change /veh FAM26E (11764081_at) / RFU ISYNA1 (11749810_s_at) / Fold change /veh ISYNA1 (11749810_s_at) / RFU ACY1 (11761880_at) / Fold change /veh ACY1 (11761880_at) / RFU 11764098_at / Fold change /veh 11764098_at / RFU SAMD14 (11745864_x_at) / Fold change /veh SAMD14 (11745864_x_at) / RFU NPB (11741838_a_at) / Fold change /veh NPB (11741838_a_at) / RFU TMPRSS6 (11731388_a_at) / Fold change /veh TMPRSS6 (11731388_a_at) / RFU KRTAP10-2 (11738614_at) / Fold change /veh KRTAP10-2 (11738614_at) / RFU ARHGAP8 /// PRR5-ARHGAP8 (11727945_x_at) / Fold change /veh ARHGAP8 /// PRR5-ARHGAP8 (11727945_x_at) / RFU KRTAP5-7 /// NADSYN1 (11734609_at) / Fold change /veh KRTAP5-7 /// NADSYN1 (11734609_at) / RFU RASL12 (11751679_a_at) / Fold change /veh RASL12 (11751679_a_at) / RFU CDKN2B (11736163_a_at) / Fold change /veh CDKN2B (11736163_a_at) / RFU PRF1 (11729649_at) / Fold change /veh PRF1 (11729649_at) / RFU, ZNF638 /// ZNF638-IT1 / Fold change vs veh, ZNF638 /// ZNF638-IT1 / RFU, PANK3 / Fold change vs veh, PANK3 / RFU, SH3YL1 / Fold change vs veh, SH3YL1 / RFU, ZEB2 / Fold change vs veh, ZEB2 / RFU, NRIP1 / Fold change vs veh, NRIP1 / RFU, PTTG1IP / Fold change vs veh, PTTG1IP / RFU, CAPN2 / Fold change vs veh, CAPN2 / RFU, MED14 / Fold change vs veh, MED14 / RFU, SNORA58 / Fold change vs veh, SNORA58 / RFU, C1orf63 / Fold change vs veh, C1orf63 / RFU, LRRFIP1 / Fold change vs veh, LRRFIP1 / RFU, NDUFAF7 / Fold change vs veh, NDUFAF7 / RFU, SLC12A2 / Fold change vs veh, SLC12A2 / RFU, IBTK / Fold change vs veh, IBTK / RFU, ESF1 / Fold change vs veh, ESF1 / Fold change vs veh, TMEM50B / RFU, TAOK1 / Fold change vs veh, TAOK1 / RFU, ACBD3 / Fold change vs veh, ACBD3 / RFU, TMA16 / Fold change vs veh, TMA16 / RFU, RWDD3 / Fold change vs veh, RWDD3 / RFU, BCAT1 / Fold change vs veh, BCAT1 / RFU, EDEM3 / Fold change vs veh, EDEM3 / RFU, TMEM33 / Fold change vs veh, TMEM33 / RFU, WDR75 / Fold change vs veh, WDR75 / RFU, AHCTF1 / Fold change vs veh, AHCTF1 / RFU, TFRC / Fold change vs veh, TFRC / RFU, ZDHHC17 / Fold change vs veh, ZDHHC17 / RFU, NOM1 / Fold change vs veh, NOM1 / RFU, ARL8B / Fold change vs veh, ARL8B / RFU, ZBTB11 / Fold change vs veh, ZBTB11 / RFU, TAMM41 / Fold change vs veh, TAMM41 / RFU, KIAA1704 /// LOC100996395 / Fold change vs veh, KIAA1704 /// LOC100996395 / RFU, ING1 / Fold change vs veh, ING1 / RFU, TRMT61B / Fold change vs veh, TRMT61B / RFU, FUBP3 / Fold change vs veh, FUBP3 / RFU, TP53 / Fold change vs veh, TP53 / RFU, TNKS2 / Fold change vs veh, TNKS2 / RFU, ZFP14 / Fold change vs veh, ZFP14 / RFU, ACTR2 / Fold change vs veh, ACTR2 / RFU, PPP3R1 / Fold change vs veh, PPP3R1 / RFU, PIK3R1 / Fold change vs veh, PIK3R1 / RFU, HNRNPA1 / Fold change vs veh, HNRNPA1 / RFU, RNF170 / Fold change vs veh, RNF170 / RFU, ZNF28 / Fold change vs veh, ZNF28 / RFU, RNGTT / Fold change vs veh, RNGTT / RFU, OGT / Fold change vs veh, OGT / RFU, BRD1 / Fold change vs veh, BRD1 / RFU, MARS / Fold change vs veh, MARS / RFU, ZNF655 / Fold change vs veh, ZNF655 / RFU, FAHD1 / Fold change vs veh, FAHD1 / RFU, BDP1 / Fold change vs veh, BDP1 / RFU, LRRCC1 / Fold change vs veh, LRRCC1 / RFU, ARID1A / Fold change vs veh, ARID1A / RFU, ZNF146 / Fold change vs veh, ZNF146 / RFU, ZNF330 / Fold change vs veh, ZNF330 / RFU, GPN3 / Fold change vs veh, GPN3 / RFU, C9orf123 / Fold change vs veh, C9orf123 / RFU, N4BP2L2 / Fold change vs veh, N4BP2L2 / RFU, ARFIP1 / Fold change vs veh, ARFIP1 / RFU, FAM179B / Fold change vs veh, FAM179B / RFU, BCL10 / Fold change vs veh, BCL10 / RFU, UHRF1BP1L / Fold change vs veh, UHRF1BP1L / RFU, BET1 / Fold change vs veh, BET1 / RFU, CNOT2 / Fold change vs veh, CNOT2 / RFU, ZNF268 / Fold change vs veh, ZNF268 / Fold change vs veh, ZNF507 / RFU, DGCR2 / Fold change vs veh, DGCR2 / RFU, WDSUB1 / Fold change vs veh, WDSUB1 / Fold change vs veh, HSP90B1 /// MIR3652 / RFU, ADSS / Fold change vs veh, ADSS / RFU, GK / Fold change vs veh, GK / RFU, ZNF148 / Fold change vs veh, ZNF148 / RFU, TAF9 / Fold change vs veh, TAF9 / RFU, SLC1A5 / Fold change vs veh, SLC1A5 / RFU, SLMO2 / Fold change vs veh, SLMO2 / RFU, ABCC4 / Fold change vs veh, ABCC4 / RFU, LOC101060439 /// RAP1B / Fold change vs veh, LOC101060439 /// RAP1B / RFU, RFX7 / Fold change vs veh, RFX7 / RFU, GTPBP10 / Fold change vs veh, GTPBP10 / RFU, CNEP1R1 / Fold change vs veh, CNEP1R1 / RFU, BIVM-ERCC5 /// ERCC5 / Fold change vs veh, BIVM-ERCC5 /// ERCC5 / RFU, ILF3 / Fold change vs veh, ILF3 / RFU 11762660_at / Fold change /veh 11762660_at / RFU VCAN (11757783_s_at) / Fold change /veh VCAN (11757783_s_at) / RFU DDX43 (11728927_at) / Fold change /veh DDX43 (11728927_at) / RFU KRT8 (11758188_x_at) / Fold change /veh KRT8 (11758188_x_at) / RFU NKD1 (11759106_at) / Fold change /veh NKD1 (11759106_at) / RFU SRD5A1 (11742802_a_at) / Fold change /veh SRD5A1 (11742802_a_at) / RFU TPSAB1 /// TPSB2 (11721975_s_at) / Fold change /veh TPSAB1 /// TPSB2 (11721975_s_at) / RFU GSTM3 (11746129_a_at) / Fold change /veh GSTM3 (11746129_a_at) / RFU IL23R (11737362_x_at) / Fold change /veh IL23R (11737362_x_at) / RFU TMEM51 (11727254_a_at) / Fold change /veh TMEM51 (11727254_a_at) / RFU PIWIL2 (11732686_x_at) / Fold change /veh PIWIL2 (11732686_x_at) / RFU ORM1 (11744905_x_at) / Fold change /veh ORM1 (11744905_x_at) / RFU CCDC152 (11743942_at) / Fold change /veh CCDC152 (11743942_at) / RFU ECM1 (11717891_a_at) / Fold change /veh ECM1 (11717891_a_at) / RFU IL23R (11748794_a_at) / Fold change /veh IL23R (11748794_a_at) / RFU TNFAIP8L3 (11732012_x_at) / Fold change /veh TNFAIP8L3 (11732012_x_at) / RFU MBOAT4 (11741988_at) / Fold change /veh MBOAT4 (11741988_at) / RFU 11764193_at / Fold change /veh 11764193_at / RFU TMEM53 (11763286_at) / Fold change /veh TMEM53 (11763286_at) / RFU MAGEB2 (11727129_at) / Fold change /veh MAGEB2 (11727129_at) / RFU TMEM200A (11744735_a_at) / Fold change /veh TMEM200A (11744735_a_at) / RFU CCDC152 (11751479_a_at) / Fold change /veh CCDC152 (11751479_a_at) / RFU FAM211A (11726209_a_at) / Fold change /veh FAM211A (11726209_a_at) / RFU RGS16 (11746705_a_at) / Fold change /veh RGS16 (11746705_a_at) / RFU VCAN (11755009_s_at) / Fold change /veh VCAN (11755009_s_at) / RFU RHOB (11743442_s_at) / Fold change /veh RHOB (11743442_s_at) / RFU RGS16 (11720943_a_at) / Fold change /veh RGS16 (11720943_a_at) / RFU RGS16 (11720944_at) / Fold change /veh RGS16 (11720944_at) / RFU, VPS4B / Fold change vs veh, VPS4B / RFU, CREB1 / Fold change vs veh, CREB1 / RFU, DNAJC13 / Fold change vs veh, DNAJC13 / RFU, GNAQ / Fold change vs veh, GNAQ / RFU, CDK5R1 / Fold change vs veh, CDK5R1 / RFU, ZRANB3 / Fold change vs veh, ZRANB3 / RFU, CUL4A / Fold change vs veh, CUL4A / RFU, CCNY / Fold change vs veh, CCNY / RFU, UFL1 / Fold change vs veh, UFL1 / RFU, COG3 / Fold change vs veh, COG3 / RFU, DIAPH2 / Fold change vs veh, DIAPH2 / RFU, SKA2 / Fold change vs veh, SKA2 / RFU, AFF3 / Fold change vs veh, AFF3 / RFU, LMF1 / Fold change vs veh, LMF1 / RFU, IPO11 / Fold change vs veh, IPO11 / RFU, DFFB / Fold change vs veh, DFFB / RFU, FOXP1 / Fold change vs veh, FOXP1 / RFU, CARD8 / Fold change vs veh, CARD8 / RFU, STRN3 / Fold change vs veh, STRN3 / RFU, ADK / Fold change vs veh, ADK / RFU, RASSF2 / Fold change vs veh, RASSF2 / RFU, WIPF1 / Fold change vs veh, WIPF1 / RFU, LARP1B / Fold change vs veh, LARP1B / RFU, RASA1 / Fold change vs veh, RASA1 / RFU, RB1 / Fold change vs veh, RB1 / RFU, PPFIA1 / Fold change vs veh, PPFIA1 / RFU, MAT2A / Fold change vs veh, MAT2A / RFU, CCT5 / Fold change vs veh, CCT5 / RFU, WDR92 / Fold change vs veh, WDR92 / RFU, CUX1 / Fold change vs veh, CUX1 / RFU, TTC7A / Fold change vs veh, TTC7A / RFU, TMEM135 / Fold change vs veh, TMEM135 / RFU, DEPTOR / Fold change vs veh, DEPTOR / RFU, CPM / Fold change vs veh, CPM / RFU, DNAJB6 / Fold change vs veh, DNAJB6 / RFU, CACNA2D3 / Fold change vs veh, CACNA2D3 / RFU, DTX4 / Fold change vs veh, DTX4 / RFU, TFCP2 / Fold change vs veh, TFCP2 / RFU, GMCL1 /// GMCL1P1 / Fold change vs veh, GMCL1 /// GMCL1P1 / RFU, AEBP2 / Fold change vs veh, AEBP2 / RFU, SNHG1 /// SNORD22 /// SNORD25 /// SNORD26 /// SNORD27 /// SNORD28 /// SNORD29 /// SNORD31 / Fold change vs veh, SNHG1 /// SNORD22 /// SNORD25 /// SNORD26 /// SNORD27 /// SNORD28 /// SNORD29 /// SNORD31 / Fold change (Aza/veh), C12orf56 (ProbeSet 11735607_a_at) / Fold change (ACY-1035/veh), C12orf56 (ProbeSet 11735607_a_at) / Fold change (Aza/veh), FGFR1OP (ProbeSet 11751329_s_at) / Fold change (ACY-1035/veh), FGFR1OP (ProbeSet 11751329_s_at) / Fold change (Aza/veh), VPS36 (ProbeSet 11739960_a_at) / Fold change (ACY-1035/veh), VPS36 (ProbeSet 11739960_a_at) / RFU SYPL1 (11715823_x_at) / Fold change /veh SYPL1 (11715823_x_at) / RFU IGFBP7 (11715501_s_at) / Fold change /veh IGFBP7 (11715501_s_at) / RFU REEP3 (11722064_at) / Fold change /veh REEP3 (11722064_at) / RFU IGLL1 (11728026_x_at) / Fold change /veh IGLL1 (11728026_x_at): dose or concentration left out as unconfirmed. As to conditions: MV-4-11 cells, 48 hours.

Each structure is given as a SMILES string.

Consider `Nc1ccc(-c2cccs2)cc1NC(=O)c1ccc2c(c1)cc(C1CC1)n2CCN1CCOCC1` [ACY-1035], for which the “RFU A4GNT (11735810_at)” value came out at 16.59 RFU.
